22 molecules from PubChem BioAssay (NCI) can be followed below.

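In this assay, cells in 96-well plates receive the compound at five concentrations for 48 hours. Endpoints are linearly interpolated between the surrounding concentrations. The concentration for 50% growth inhibition is given as GI50. TGI: total growth inhibition.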

Some test systems named below: M14 melanoma; OVCAR-5 ovarian; K-562 leukemia; HOP-62 NSCLC; UACC-62 melanoma; SN12C renal; SF-539 CNS; SNB-19 CNS.
Assay in all cases: NCI anticancer screen, dose series, 48 h

With `COc1ccc(Nc2nc3ccc(C(F)(F)F)cc3nc2-c2ccccc2)cc1OC`, the TGI in the test with M14 melanoma, in the test with OVCAR-5 ovarian, in the test with K-562 leukemia, in the test with HOP-62 NSCLC, in the test on UACC-62 melanoma and in the test on SN12C renal was above 100 µM throughout. This molecule showed a TGI with SF-539 CNS above 100 µM.
With `COc1ccc(OC)c(/C(C)=N/NC(N)=S)c1`, the TGI with M14 melanoma, in the test on OVCAR-5 ovarian, with K-562 leukemia, in the test with HOP-62 NSCLC, in the test on UACC-62 melanoma and in the test with SN12C renal was above 100 µM in each case. This molecule had a TGI in the test with SF-539 CNS above 100 µM.
`COc1ccc2c(c1)N1CCc3cc(OC)c(OC)cc3C1C2` (stereo not drawn): the TGI in the test with SNB-19 CNS, with K-562 leukemia, with HOP-62 NSCLC, with UACC-62 melanoma, with SN12C renal and with SF-539 CNS was above 100 µM throughout.
Take `Cc1cc2c(ccc3c(C)cc(=O)oc32)o1`: the TGI in the test with M14 melanoma, in the test with OVCAR-5 ovarian, with SNB-19 CNS, in the test on K-562 leukemia, with HOP-62 NSCLC and with UACC-62 melanoma was above 100 µM in each case. Moreover, the TGI in the test with SN12C renal and with SF-539 CNS was above 100 µM throughout.
As to `CN(C)CC(C)(C)C(=O)/C=C/c1ccc(/C=C/C(=O)C(C)(C)CN(C)C)cc1`, the TGI in the test on M14 melanoma worked out at 3.21 µM; in the test with OVCAR-5 ovarian, 3.51 µM; with SNB-19 CNS, 4.75 µM; in the test on K-562 leukemia, 0.594 µM; in the test on HOP-62 NSCLC, 4.51 µM; in the test on UACC-62 melanoma, 3.17 µM. Also, the TGI in the test with SN12C renal came to 3.55 µM; with SF-539 CNS, 3.81 µM.
Take `COCCCNC(=O)C1C(=O)N(CCCOC)C(=O)/C1=N\N` (stereo not drawn): the TGI in the test with M14 melanoma, in the test with OVCAR-5 ovarian, in the test on SNB-19 CNS, with K-562 leukemia, with HOP-62 NSCLC and with UACC-62 melanoma was above 100 µM throughout. For the same molecule, the TGI with SN12C renal and in the test with SF-539 CNS was above 100 µM in each case.
For `C[N-]c1nnnn1C.[Au+].c1ccc([PH+](c2ccccc2)c2ccccc2)cc1`, the GI50 in the test with M14 melanoma was 2.34 µM; in the test on OVCAR-5 ovarian it was 19.1 µM; in the test on SNB-19 CNS, 2.25 µM; with K-562 leukemia, 0.518 µM; in the test on HOP-62 NSCLC, 7.89 µM; in the test with UACC-62 melanoma, 2.06 µM. The GI50 in the test on SN12C renal is 3.46 µM; in the test on SF-539 CNS, 2.38 µM. Also, the TGI with M14 melanoma worked out at 5.51 µM; in the test with OVCAR-5 ovarian it was 34 µM; in the test on SNB-19 CNS, 6.18 µM; with K-562 leukemia, 2.88 µM; with HOP-62 NSCLC, 16.8 µM; in the test on UACC-62 melanoma, 6.87 µM. Also, the TGI in the test with SN12C renal came to 7.92 µM; with SF-539 CNS it was 7.39 µM.
Take `[Cl-].[O-]/N=C(\c1ccccc1)c1ccccn1.[O-]/N=C(\c1ccccc1)c1ccccn1.[O-]/N=C(\c1ccccc1)c1ccccn1.[Sm+3]`: the GI50 in the test with M14 melanoma was 19.6 µM; in the test on OVCAR-5 ovarian, 53.9 µM; in the test with SNB-19 CNS it was 36 µM; with K-562 leukemia, 32.6 µM; in the test on HOP-62 NSCLC it was 28 µM; with UACC-62 melanoma, 26.2 µM. For the same molecule, the GI50 with SN12C renal was 33.1 µM; in the test with SF-539 CNS, 28.1 µM. Further, the TGI with M14 melanoma is 40.6 µM; in the test with OVCAR-5 ovarian, above 100 µM; with SNB-19 CNS it was above 100 µM; in the test on K-562 leukemia it was above 100 µM; in the test with HOP-62 NSCLC, above 100 µM; with UACC-62 melanoma it was 78.7 µM. Besides, the figures for the TGI in the test with SN12C renal and in the test on SF-539 CNS were above 100 µM and 75.2 µM, respectively.
With `Cc1[nH]c2ccccc2c1C(=O)CC1(O)C(=O)Nc2ccccc21` (stereo not drawn), the TGI with M14 melanoma, in the test with OVCAR-5 ovarian, in the test on SNB-19 CNS, with K-562 leukemia, with HOP-62 NSCLC and with UACC-62 melanoma was above 100 µM each time. Further, the TGI in the test on SN12C renal and in the test on SF-539 CNS was above 100 µM each time.
With `Cc1ccc(SC(CCC(Sc2ccc(C)cc2)Sc2ccc(C)cc2)Sc2ccc(C)cc2)cc1`, the TGI in the test on M14 melanoma, with SNB-19 CNS, in the test on K-562 leukemia, in the test with HOP-62 NSCLC, with UACC-62 melanoma and in the test with SN12C renal was above 100 µM in each case. In the test with SF-539 CNS, this molecule gave a TGI above 100 µM.
As to `C=C(COC(C)=O)CC(OC(C)=O)c1ccccc1` (stereo not drawn), the TGI in the test on M14 melanoma, with OVCAR-5 ovarian, with SNB-19 CNS, in the test on K-562 leukemia, in the test on HOP-62 NSCLC and with UACC-62 melanoma was above 100 µM each time. Besides, the TGI with SN12C renal and with SF-539 CNS was above 100 µM in each case.
Take `CC(C)CC(NC(=O)c1cccc(O)c1O)C(=O)NCc1cc(CNC(=O)C(CC(C)C)NC(=O)c2cccc(O)c2O)cc(CNC(=O)C(CC(C)C)NC(=O)c2cccc(O)c2O)c1` (stereo not drawn): the TGI in the test on OVCAR-5 ovarian is 27.1 µM; in the test on SNB-19 CNS it was 47.3 µM; in the test with K-562 leukemia, above 100 µM; with HOP-62 NSCLC, 52.8 µM; in the test on UACC-62 melanoma it was 17.8 µM; with SN12C renal, 56.3 µM. The TGI in the test on SF-539 CNS was found to be 20.9 µM.
Take `COc1ccc(S(=O)(=O)Nc2ccccc2C(=O)O)cc1`: the TGI in the test on M14 melanoma, in the test with OVCAR-5 ovarian, in the test with SNB-19 CNS, in the test on K-562 leukemia, in the test with UACC-62 melanoma and with SN12C renal was above 100 µM in each case. In the test on SF-539 CNS, this molecule gave a TGI above 100 µM.
Consider `O=C1c2ccccc2C(Br)(Br)c2ccccc21`, for which the TGI in the test on M14 melanoma was above 31.6 µM; in the test on OVCAR-5 ovarian, above 31.6 µM; in the test on SNB-19 CNS it was above 31.6 µM; in the test with K-562 leukemia, above 31.6 µM; in the test with UACC-62 melanoma, above 100 µM; with SN12C renal, above 31.6 µM. Also, in the test with SF-539 CNS, the TGI is above 100 µM.
For the molecule `C#Cc1cccc(N2C(=O)CCC2=O)c1`, the TGI amounted to 11.7 µM in the test on M14 melanoma; 32.5 µM with OVCAR-5 ovarian; 48 µM in the test on SNB-19 CNS; 20.9 µM with K-562 leukemia; 33.8 µM in the test with UACC-62 melanoma; 33.6 µM in the test on SN12C renal. Further, in the test with SF-539 CNS, the TGI amounted to 46.9 µM.
Regarding `CC1CCC2(CC1)NN=c1s/c(=C\c3ccc(O)cc3)c(=O)n1N2` (stereo not drawn), the TGI with M14 melanoma, in the test on SNB-19 CNS, in the test with K-562 leukemia, in the test with HOP-62 NSCLC, in the test with UACC-62 melanoma and with SN12C renal was above 100 µM throughout. In the test on SF-539 CNS, this molecule came in with a TGI above 100 µM.
For `CC(=O)[O][Ga]([Cl])[O]C(C)=O`, the GI50 in the test with M14 melanoma, with OVCAR-5 ovarian, in the test on SNB-19 CNS, in the test with K-562 leukemia, in the test on UACC-62 melanoma and with SN12C renal was above 100 µM each time. Moreover, the GI50 with SF-539 CNS is above 100 µM. Further, the TGI with M14 melanoma, in the test with OVCAR-5 ovarian, with SNB-19 CNS, in the test on K-562 leukemia, with UACC-62 melanoma and in the test on SN12C renal was above 100 µM in each case. The molecule also registered a TGI in the test on SF-539 CNS above 100 µM.
As to `c1cc(N(CCn2cccn2)CCn2cccn2)cc(N(CCn2cccn2)CCn2cccn2)c1`, the TGI with M14 melanoma, in the test with SNB-19 CNS, with K-562 leukemia, in the test with HOP-62 NSCLC, in the test on UACC-62 melanoma and in the test on SN12C renal was above 100 µM each time.
`COc1ccc2c(CN3CCCCC3CO)cc3cc(OC)c(OC)cc3c2c1` (stereo not drawn): the TGI worked out at 25 µM in the test with M14 melanoma; 12 µM in the test on OVCAR-5 ovarian; 16.5 µM in the test on SNB-19 CNS; 10.1 µM in the test with K-562 leukemia; 20.7 µM in the test with HOP-62 NSCLC; 25.7 µM in the test with UACC-62 melanoma. The TGI is 26.2 µM in the test on SN12C renal and 15 µM with SF-539 CNS.
For `CCC[CH2][Sn]1([CH2]CCC)[O]CC(Cc2ccccc2)[O]1` (stereo not drawn), the GI50 is 2.3 µM with M14 melanoma; 11.2 µM with OVCAR-5 ovarian; 3.45 µM in the test with SNB-19 CNS; 1.67 µM with K-562 leukemia; 4.04 µM with HOP-62 NSCLC; 1.7 µM in the test on UACC-62 melanoma. Moreover, the GI50 is 3.5 µM in the test with SN12C renal and 1.87 µM in the test with SF-539 CNS. Besides, the TGI came to 5.51 µM with M14 melanoma; 23.3 µM in the test on OVCAR-5 ovarian; 11.7 µM with SNB-19 CNS; 6.64 µM in the test on K-562 leukemia; 19.4 µM in the test with HOP-62 NSCLC; 3.69 µM in the test with UACC-62 melanoma. The TGI with SN12C renal was 11.7 µM; with SF-539 CNS, 4.15 µM.
For `CCCCCC(=O)C(C)C1=Nc2nnc(CCCCCCCc3nnc4n3C(=O)C(C(C)C(=O)CCCCC)=N4)n2C1=O` (stereo not drawn), the TGI with M14 melanoma, with OVCAR-5 ovarian, in the test with SNB-19 CNS, with K-562 leukemia, in the test with HOP-62 NSCLC and in the test on UACC-62 melanoma was above 100 µM in each case. Moreover, the TGI with SN12C renal and in the test with SF-539 CNS was above 100 µM each time.
For `COC(=O)/C=C1/CCC(C(=O)OC)N1` (stereo not drawn), the TGI in the test with M14 melanoma, in the test on SNB-19 CNS, with K-562 leukemia, in the test with HOP-62 NSCLC, in the test with UACC-62 melanoma and with SN12C renal was above 100 µM throughout. Also, in the test with SF-539 CNS, the TGI is above 100 µM.
